Measured values as given in patent publication US8586571B2, “Heterocyclic compound” (Takeda Pharmaceutical Company Limited, priority 2007, dated 2013).

What was measured:
[1] = target: human RBP4 (Homo sapiens (Human), UniProt P02753); test: Binding assay by Retinol-RBP4-TTR ELISA (human-type ELISA); settings: inhibition of binding of RBP4 with retinol and TTR; retinol 0.5 μM; read-out: human RBP4 binding inhibitory activity (IC50 nM)
Method: The action of the compound of the present invention to inhibit binding of RBP4 and retinol and TTR was evaluated using the Retinol-RBP4-TTR ELISA (human-type ELISA) system shown below.
Binding Assay by Retinol-RBP4-TTR ELISA
This ELISA system detects a complex of retinol, RBP4 and TTR by Streptoavidin-Biotin reaction.
His-tagged human RBP4 used was prepared in the above-mentioned 1C.
Biotinylate human TTR used was prepared in the above-mentioned 1E.
Streptavidin (20 μl) (10 μg/ml Streptavidin type II (Wako Pure Chemical Industries, Ltd.), 10 mM Tris-HCl (pH 7.5), 10 mM NaCl) was added to a 384 well black maxisorp plate (Nunc), and the plate was subjected to centrifugation (1000 rpm, 1 min) and coated overnight at 4° C. The plate was washed twice with PBST (PBS, 0.05% Tween 20, 100 μl/well) and blocked with 25% Block Ace (Snow Brand Milk Products Co., Ltd., PBS, 100 μl/well). The plate was subjected to centrifugation (1000 rpm, 1 min) and incubated at room temperature for 4 hr or overnight at 4° C. The plate was washed twice with PEST (PBS, 0.05% Tween 20, 100 μl/well), and biotinylated human TTR (stock solution concentration 1.3 mg/ml) diluted 1000-fold with PBST was added at 20 μl/well. The plate was subjected to centrifugation (1000 rpm, 1 min) and stood still at room temperature for 1.5 hr or overnight at 4° C. The plate was washed 3 times with PBST (100 μl/well), and His-tagged human RBP4 (stock solution concentration 0.96 mg/ml) diluted 4000-fold with a reaction buffer (50 mM Tris-HCl, 150 mM NaCl, 0.005% Tween 20, 1 mM DTT, 0.1% BSA) was added at 10 μl/well. The dilution series (8 doses from 10 mM, 200-fold concentration) of the compound was prepared with DMSO, and 1 μl of each was added to a reaction buffer (200 μl) containing retinol (0.5 μM) (Sigma-Aldrich Co.). A reaction buffer (200 μl) containing retinol and added with DMSO was used as a positive control, and reaction buffer (200 μl) free of retinol and added with DMSO was used as a negative control. Mixed solutions of retinol and the compound were added to the plate at 15 μl/well. The mixture was stirred in a platemixer subjected to centrifugation (1000 rpm, 1 min) and reacted at room temperature for 2 hr. A 35% Block Ace solution diluted with the reaction buffer was added at 10 μl/well, centrifuged (1000 rpm, 1 min) and reacted at room temperature for 30 min. The plate was washed 3 times with PBST (100 μl/well) and SuperSignal ELISA Femto Maximum Sensitivity Substrate reagent (PIERCE) was added at 30 μl/well, and the luminescence was measured by a platereader (Wallac).
The binding inhibitory rate of the compound was determined by 100×(test compound value-negative control value)/(positive control value-negative control value). The binding activity (IC50) was calculated from the binding inhibitory rate at each compound concentration using a graph drawing software, Prism (GraphPad Software Inc.).

[2] = target: RBP4 (Mus musculus (Mouse), UniProt Q00724); test: Blood RBP4 lowering action in C57BL/6J mouse (plasma RBP4 by ELISA); assay type: in vivo; settings: mean±SD (n=5)
Method: A blood RBP4 lowering action of the compound of the present invention was evaluated using C57BL/6J mouse.
Male 7- to 15-week-old C57BL/6J mice (Charles River Laboratories Japan Inc.) were individually bred for acclimation for 4-6 days under conditions with free access to CE-2 solid food (CLEA Japan, Inc.), and grouped based on the body weight (5 per group). The next day of grouping, blood samples were collected from the orbital venous plexus, and plasma was separated (0 hr value). Thereafter, the test compounds (Examples 12, 143, 164, 189, 197, 207 and 215) were orally administered at a dose of 50 mg/kg (solvent: 0.5% methylcellulose solution (10 mL/kg)). At 4, 7 and 24 hr after administration of the compounds, blood samples were collected from the orbital venous plexus, and plasma was separated. A 0.5% methylcellulose solution (10 mL/kg) was orally administered to the control group.
The RBP4 level of the collected plasma was measured by ELISA. RBP4 was quantified by the following steps using a rabbit anti-mouse RBP4 polyclonal antibody (Hokudo Co., Ltd). A 96 well ELISA plate was coated with 50 μg/mL of the antibody (100 μL) and stood at 4° C. overnight. After blocking with BlockAce (DAINIPPON PHARMACEUTICAL CO., LTD.), mouse RBP4 or a sample (100 μL) was added and the plate was stood at room temperature for 2 hr. After washing with PBS-0.5% Tween 20, HRP-labeled anti-RBP4 antibody (prepared by labeling RBP4 polyclonal antibody (Hokudo Co., Ltd) with HRP (DOJINDO LABORATORIES)) was added by 100 μL, and the plate was stood at room temperature for 1 hr. After washing, TMB (Dako Cytomations) was added, and the mixture was stood at room temperature for 20 min to allow color development, and the reaction was quenched with 2N sulfuric acid. Thereafter, the absorbance at A450 nm was measured on a platereader. The amount of change from the initial value of each animal was determined as a relative value from the control group (% of initial/Control) at each time point. The results are shown in the following in mean±standard deviation (n=5).

[3] = tested on: Zucker fa/fa rat; test: TG-lowering action using Zucker fa/fa rat (Charles River Laboratories Japan Inc.); assay type: in vivo; settings: oral 30 mg/kg for 2 weeks
Method: An anti-diabetes action and a blood triglyceride (hereinafter TG)-lowering action of the compound of the present invention were evaluated using Zucker fa/fa rats.
Male 10-week-old Zucker fa/fa rats (Charles River Laboratories Japan Inc.) were bred in group on CE-2 solid food (CLEA Japan, Inc.) until 12-week-old for acclimation under conditions with free access to food. At 12-week-old, the rats were grouped based on the body weight, blood glucose level, glycated hemoglobin level, blood RBP4 level and blood triglyceride blood (hereinafter TG) (5 per group). Thereafter, the test compound (Example 12) was orally administered at a dose of 30 mg/kg (solvent: 0.5% methylcellulose solution (3 mL/kg)) for 2 weeks. The next day of the final administration of the compound, blood samples were collected from the tail vein, and plasma was separated. Using the collected plasma, (1) RBP4 concentration and (2) TG level were measured. (1) was quantified according to the protocol described in Experimental Example 2. (2) was measured using Hitachi fully automatic analyzer (Model 7070).
A 0.5% methylcellulose solution (5 mL/kg) was orally administered to the control group. […] The results are shown in the following in mean±standard deviation (n=5).

IC50 [1]: 210 nM
RBP4 (% of initial/Control) 4 hr later ([2]; 4 hr after single oral 50 mg/kg): 57.7 ± 3.6 % of initial/Control
RBP4 (% of initial/Control) 7 hr later ([2]; 7 hr after single oral 50 mg/kg): 44.3 ± 2.0 % of initial/Control
RBP4 (% of initial/Control) 24 hr later ([2]; 24 hr after single oral 50 mg/kg): 50.0 ± 3.4 % of initial/Control
Compound: CC(C)(C)c1ccccc1OC1CN(C(=O)CCC(=O)O)C1 [Example 12, 4-(3-(2-tert-butylphenoxy)azetidin-1-yl)-4-oxobutanoic acid]
TG (result in words) ([3]; versus control): significant decrease
blood RBP4 concentration (result in words) ([3]; versus control): significant decrease
RBP4 ([3]; plasma, mean±SD (n=5)): 8.2 ± 1.1 µg/mL
TG ([3]; plasma, mean±SD (n=5)): 650.8 ± 130.6 mg/dL
